Columns and labels:
ATGL = biological target: T1, ATGL (Mus musculus, UniProt Q8BJ56); assay: Atglistatin inhibition of rLIF- or isoproterenol-induced adipocyte lipolysis; format: cell-based; details: 1 ng/ml rLIF, increasing concentrations of Atglistatin
T1 construct: endogenous in cells; host or cells: differentiated SVF adipocytes
T1 sequence (Q8BJ56 1-486): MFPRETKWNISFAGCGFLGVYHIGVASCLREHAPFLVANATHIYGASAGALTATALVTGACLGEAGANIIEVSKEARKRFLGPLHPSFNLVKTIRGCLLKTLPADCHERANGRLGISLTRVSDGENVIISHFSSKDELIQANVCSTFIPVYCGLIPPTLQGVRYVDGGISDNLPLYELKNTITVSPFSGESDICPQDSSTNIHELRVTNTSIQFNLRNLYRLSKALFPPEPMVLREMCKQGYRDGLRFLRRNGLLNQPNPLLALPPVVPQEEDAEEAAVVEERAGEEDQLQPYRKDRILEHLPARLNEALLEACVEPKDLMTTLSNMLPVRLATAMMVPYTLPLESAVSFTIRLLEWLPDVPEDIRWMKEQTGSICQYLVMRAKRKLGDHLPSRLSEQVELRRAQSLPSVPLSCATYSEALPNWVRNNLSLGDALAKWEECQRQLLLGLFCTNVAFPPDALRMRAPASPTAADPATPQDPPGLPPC
Protocol: Using the tissue culture adipocyte lipolysis assay, we tested both purified recombinant versions of LIF for their ability to stimulate lipolysis. FIG. 1B-D show adipocyte lipolysis and signaling in wild-type and mutant rLIF-treated adipocytes. Differentiated adipocytes in a 12-well format were treated in a final volume of 1.5 ml of medium supplemented with either the indicated concentration of rLIF or rLIF K159A (FIG. 1B-C); or 30 nM Isoprotererenol or 1 ng/ml rLIF in the absence or presence of the indicated concentration of Atglistatin (FIG. 1D). After incubation for 20 h at 37° C., medium was collected and glycerol concentration was measured using the adipocyte lipolysis assay (FIGS. 1B and D) or adipocyte cells were harvested and subjected to IB analysis (FIG. 1C) ([…]) with the indicated antibody. Each data point (FIG. 1B) represents the mean±SEM of the relative change in medium glycerol concentration compared to conditions containing rLIF without Atglistatin (red, 26 μM) or isoproterenol without Atglistatin (black, 83 μM). As shown in (FIG. 1B), in vitro adipocyte lipolysis activity with WT rLIF was increased over background by ˜5-fold compared with mutant rLIF K159A.
In adipocytes, triglycerides are sequentially hydrolyzed by ATGL, HSL, and monoacylglycerol lipase (MGL). […]

[1] = test system: differentiated SVF adipocytes; assay: adipocyte lipolysis assay (glycerol released into the medium); format: cell-based; details: 12-well format, 20 h at 37° C., without Atglistatin; 1 ng/ml rLIF or 30 nM isoproterenol
Protocol: Conditioned medium from the C26c20 and MC-38 cells was subsequently placed on differentiated adipocytes, and the amount of glycerol released into the medium was quantified. Glycerol release into the medium is a marker for triglyceride lipolysis in adipocytes (27).
SVF preadipocytes were differentiated into adipocytes as follows: On day −3, SVF preadipocytes were set up in 1 ml medium B at a density of 1×10^6 cells/well of 12-well plates or 3.3×10^5 cells/well of 48-well plates. […] After 2 minutes, the amount of absorbance per well was measured using a Tecan microplate reader (absorbance 540 nm). The amount of glycerol concentration released into the medium per condition over background was calculated using the measured absorbance relative to the absorbance of the standardized curve.
To identify the proteins that mediated lipolysis in C26c20 conditioned medium, we carried out a biochemical purification using the lipolysis assay described above using SVF preadipocytes differentiated into adipocytes set up in 12-well plates or 48-well plates. […] After 2 minutes, the amount of absorbance per well was measured using a Tecan microplate reader (absorbance 540 nm). The amount of glycerol concentration released into the medium per condition over background was calculated using the measured absorbance relative to the absorbance of the standardized curve. […]

Row | SMILES | inhibition of rLIF-induced lipolysis (ATGL) | medium glycerol concentration [1] [µM]
1 | CN(C)C(=O)Nc1cccc(-c2ccc(N(C)C)cc2)c1 [Atglistatin] | inhibited | –
2 | CC(C)NCC(O)c1ccc(O)c(O)c1 (centres unmarked) [isoproterenol] | – | 83
